Laboratory results published in PubChem BioAssay (NCI).
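Exposure lasted 48 hours, with cells grown in 96-well plates and compounds tested at five concentrations. TGI denotes the concentration required for complete inhibition of growth.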

How the values were obtained:
Test in all cases: NCI tumour cell line growth inhibition, 48 h
786-0 renal = tested on: 786-0 renal
P388 leukemia = tested on: P388 leukemia
SN12K1 renal = tested on: SN12K1 renal
DMS 273 small cell lung = tested on: DMS 273 small cell lung
P388/ADR leukemia = tested on: P388/ADR leukemia
HOP-18 NSCLC = tested on: HOP-18 NSCLC
XF 498 CNS = tested on: XF 498 CNS
M19-MEL melanoma = tested on: M19-MEL melanoma
RXF-631 renal = tested on: RXF-631 renal
LXFL 529 NSCLC = tested on: LXFL 529 NSCLC

| SMILES | TGI (786-0 renal) [µM] | TGI (P388 leukemia) [µM] | TGI (SN12K1 renal) [µM] | TGI (DMS 273 small cell lung) [µM] | TGI (P388/ADR leukemia) [µM] | TGI (HOP-18 NSCLC) [µM] | TGI (XF 498 CNS) [µM] | TGI (M19-MEL melanoma) [µM] | TGI (RXF-631 renal) [µM] | TGI (LXFL 529 NSCLC) [µM] |
| --- | --- | --- | --- | --- | --- | --- | --- | --- | --- | --- |
| Clc1ccc2c(NCCNc3ccnc4cc(Cl)ccc34)ccnc2c1 | 28.2 | – | – | – | – | – | – | – | – | – |
| COc1ccc(CCCC(=O)O)c(C)c1 | > 100 | – | – | – | – | – | – | – | – | – |
| COc1cccc2c1C(=O)c1c(O)c3c(c(O)c1C2=O)C[C@@](O)(/C(C)=N/NC(=O)c1ccccc1)C[C@@H]3OC1CC(N)C(O)C(C)O1 (some centres undefined) | 0.744 | 1.61 | 1.88 | 1.65 | 35.6 | 6.61 | 0.242 | 2.99 | – | – |
| Nc1nc(N)c2nc(-c3ccco3)cnc2n1 | > 100 | – | – | – | – | > 100 | > 100 | > 100 | > 100 | > 100 |
| O=C1C=C(N2CC2)C(=O)C=C1N1CC1 | – | – | – | 0.52 | – | – | 0.538 | – | – | 0.527 |
